Source: patent publication US9951063B2, “8-(piperazin-1-yl)-1,2,3,4-tetrahydro-isoquinoline derivatives” (IDORSIA PHARMACEUTICALS LTD, priority 2014, dated 2018)

target: human CXCR3A (Homo sapiens (Human), UniProt P49682); experiment: FLIPR assay (inhibition of CXCL10-induced calcium signal); format: cell-based; details: engineered CHO-K1 cells expressing human CXCR3A coupled to Galpha(16); Fluo-4-AM; CXCL10 agonist 20 nM; mean values where determined several times
Method in brief: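 CHO-K1 cells expressing human CXCR3A coupled to Gα16 were loaded with Fluo-4-AM for 1 h in HBSS/20 mM Hepes pH 7.4 with probenecid. Compound was added, then CXCL10 (20 nM as dispensed). Baseline-subtracted peak fluorescence gave inhibition curves and IC50, averaged over repeats.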

human CXCR3A, sequence (P49682 whole entry): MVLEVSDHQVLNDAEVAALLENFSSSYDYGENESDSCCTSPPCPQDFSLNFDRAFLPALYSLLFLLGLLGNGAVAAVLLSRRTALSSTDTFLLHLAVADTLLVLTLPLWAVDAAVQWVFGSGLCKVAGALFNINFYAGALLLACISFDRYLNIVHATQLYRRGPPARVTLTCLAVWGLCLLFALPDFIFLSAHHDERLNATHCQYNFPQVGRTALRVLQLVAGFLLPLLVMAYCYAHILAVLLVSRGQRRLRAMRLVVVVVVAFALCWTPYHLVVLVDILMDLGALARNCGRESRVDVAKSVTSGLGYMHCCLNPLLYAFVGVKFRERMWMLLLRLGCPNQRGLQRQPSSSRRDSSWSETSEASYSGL

| Structure (SMILES) | IC50 [nM] |
| --- | --- |
| C[C@@H]1CN(c2cccc3c2CN(c2ccc(F)cc2)CC3)CCN1C(=O)Cn1cnc2cccnc21 [Example 99, 1-{(R)-4-[2-(4-Fluoro-phenyl)-1,2,3,4-tetrahydro-isoquinolin-8-yl]-2-methyl-piperazin-1-yl}-2-imidazo[4,5-b]pyridin-3-yl-ethanone] | 8.3 |
| C[C@@H]1CN(c2cccc3c2CN(c2ccc(C(F)(F)F)nc2)CC3)CCN1C(=O)Cn1cnc2cccnc21 [Example 100, 2-Imidazo[4,5-b]pyridin-3-yl-1-{(R)-2-methyl-4-[2-(6-trifluoromethyl-pyridin-3-yl)-1,2,3,4-tetrahydro-isoquinolin-8-yl]-piperazin-1-yl}-ethanone] | 1.25 |
| C[C@@H]1CN(c2cccc3c2CN(c2ccccc2)CC3)CCN1C(=O)Cn1cnc2cccnc21 [Example 101, 2-Imidazo[4,5-b]pyridin-3-yl-1-[(R)-2-methyl-4-(2-phenyl-1,2,3,4-tetrahydro-isoquinolin-8-yl)-piperazin-1-yl]-ethanone] | 14.7 |
| C[C@@H]1CN(c2cccc3c2CN(c2ccc(C(F)(F)F)cn2)CC3)CCN1C(=O)Cn1cnc2cccnc21 [Example 103, 2-Imidazo[4,5-b]pyridin-3-yl-1-{(R)-2-methyl-4-[2-(5-trifluoromethyl-pyridin-2-yl)-1,2,3,4-tetrahydro-isoquinolin-8-yl]-piperazin-1-yl}-ethanone] | 20.7 |
| COc1ccc(N2CCc3cccc(N4CCN(C(=O)Cn5cnc6cccnc65)[C@H](C)C4)c3C2)cc1 [Example 105, 2-Imidazo[4,5-b]pyridin-3-yl-1-{(R)-4-[2-(4-methoxy-phenyl)-1,2,3,4-tetrahydro-isoquinolin-8-yl]-2-methyl-piperazin-1-yl}-ethanone] | 20.3 |
| C[C@@H]1CN(c2cccc3c2CN(c2cnc(C(F)(F)F)nc2)CC3)CCN1C(=O)Cn1cnc2cccnc21 [Example 107, 2-Imidazo[4,5-b]pyridin-3-yl-1-{(R)-2-methyl-4-[2-(2-trifluoromethyl-pyrimidin-5-yl)-1,2,3,4-tetrahydro-isoquinolin-8-yl]-piperazin-1-yl}-ethanone] | 1.74 |
| CCCc1ncc(N2CCc3cccc(N4CCN(C(=O)Cn5cnc6cccnc65)[C@H](C)C4)c3C2)cn1 [Example 110, 2-Imidazo[4,5-b]pyridin-3-yl-1-{(R)-2-methyl-4-[2-(2-propyl-pyrimidin-5-yl)-1,2,3,4-tetrahydro-isoquinolin-8-yl]-piperazin-1-yl}-ethanone] | 0.85 |
| CC(C)Oc1ncc(N2CCc3cccc(N4CCN(C(=O)Cn5cnc6cccnc65)[C@H](C)C4)c3C2)cn1 [Example 111, 2-Imidazo[4,5-b]pyridin-3-yl-1-{(R)-4-[2-(2-isopropoxy-pyrimidin-5-yl)-1,2,3,4-tetrahydro-isoquinolin-8-yl]-2-methyl-piperazin-1-yl}-ethanone] | 4.83 |
| C[C@@H]1CN(c2cccc3c2CN(c2cnc(OCC(F)(F)F)nc2)CC3)CCN1C(=O)Cn1cnc2cccnc21 [Example 112, 2-Imidazo[4,5-b]pyridin-3-yl-1-((R)-2-methyl-4-{2-[2-(2,2,2-trifluoro-ethoxy)-pyrimidin-5-yl]-1,2,3,4-tetrahydro-isoquinolin-8-yl}-piperazin-1-yl)-ethanone] | 2.98 |
| C[C@@H]1CN(c2cccc3c2CN(c2ncc(-c4ccccc4)s2)CC3)CCN1C(=O)Cn1cnc2cccnc21 [Example 115, 2-Imidazo[4,5-b]pyridin-3-yl-1-{(R)-2-methyl-4-[2-(5-phenyl-thiazol-2-yl)-1,2,3,4-tetrahydro-isoquinolin-8-yl]-piperazin-1-yl}-ethanone] | 13.3 |
| COc1ncc(N2CCc3cccc(N4CCN(C(=O)Cn5cnc6cccnc65)[C@H](C)C4)c3C2)cn1 [Example 118, 2-Imidazo[4,5-b]pyridin-3-yl-1-{(R)-4-[2-(2-methoxy-pyrimidin-5-yl)-1,2,3,4-tetrahydro-isoquinolin-8-yl]-2-methyl-piperazin-1-yl}-ethanone] | 6.49 |
| CCOc1ncc(N2CCc3cccc(N4CCN(C(=O)Cn5cnc6cccnc65)[C@H](C)C4)c3C2)cn1 [Example 123, 1-{(R)-4-[2-(2-Ethoxy-pyrimidin-5-yl)-1,2,3,4-tetrahydro-isoquinolin-8-yl]-2-methyl-piperazin-1-yl}-2-imidazo[4,5-b]pyridin-3-yl-ethanone] | 4.71 |
| Cc1nc(C)n(CC(=O)N2CCN(c3cccc4c3CN(c3cnc(C(F)(F)F)nc3)CC4)C[C@H]2C)n1 [Example 125, 2-(3,5-Dimethyl-[1,2,4]triazol-1-yl)-1-{(R)-2-methyl-4-[2-(2-trifluoromethyl-pyrimidin-5-yl)-1,2,3,4-tetrahydro-isoquinolin-8-yl]-piperazin-1-yl}-ethanone] | 47.4 |
| Cc1nc(C)n(CC(=O)N2CCN(c3cccc4c3CN(c3cnc(C5CC5)nc3)CC4)C[C@H]2C)n1 [Example 126, 1-{(R)-4-[2-(2-Cyclopropyl-pyrimidin-5-yl)-1,2,3,4-tetrahydro-isoquinolin-8-yl]-2-methyl-piperazin-1-yl}-2-(3,5-dimethyl-[1,2,4]triazol-1-yl)-ethanone] | 3.98 |

Other lines, results leading:

| IC50 [nM] | Structure (SMILES) |
| --- | --- |
| 29.1 | C[C@@H]1CN(c2cccc3c2CN(c2ncccn2)CC3)CCN1C(=O)Cn1cnc2cccnc21 [Example 102, 2-Imidazo[4,5-b]pyridin-3-yl-1-[(R)-2-methyl-4-(2-pyrimidin-2-yl-1,2,3,4-tetrahydro-isoquinolin-8-yl)-piperazin-1-yl]-ethanone] |
| 9.71 | C[C@@H]1CN(c2cccc3c2CN(c2ccccn2)CC3)CCN1C(=O)Cn1cnc2cccnc21 [Example 104, 2-Imidazo[4,5-b]pyridin-3-yl-1-[(R)-2-methyl-4-(2-pyridin-2-yl-1,2,3,4-tetrahydro-isoquinolin-8-yl)-piperazin-1-yl]-ethanone] |
| 5.46 | C[C@@H]1CN(c2cccc3c2CN(c2cncnc2)CC3)CCN1C(=O)Cn1cnc2cccnc21 [Example 106, 2-Imidazo[4,5-b]pyridin-3-yl-1-[(R)-2-methyl-4-(2-pyrimidin-5-yl-1,2,3,4-tetrahydro-isoquinolin-8-yl)-piperazin-1-yl]-ethanone] |
| 32.6 | Cc1cnc(N2CCc3cccc(N4CCN(C(=O)Cn5cnc6cccnc65)[C@H](C)C4)c3C2)nc1 [Example 108, 2-Imidazo[4,5-b]pyridin-3-yl-1-{(R)-2-methyl-4-[2-(5-methyl-pyrimidin-2-yl)-1,2,3,4-tetrahydro-isoquinolin-8-yl]-piperazin-1-yl}-ethanone] |
| 12.5 | Cc1ncc(N2CCc3cccc(N4CCN(C(=O)Cn5cnc6cccnc65)[C@H](C)C4)c3C2)cn1 [Example 109, 2-Imidazo[4,5-b]pyridin-3-yl-1-{(R)-2-methyl-4-[2-(2-methyl-pyrimidin-5-yl)-1,2,3,4-tetrahydro-isoquinolin-8-yl]-piperazin-1-yl}-ethanone] |
| 12.2 | C[C@@H]1CN(c2cccc3c2CN(c2nccs2)CC3)CCN1C(=O)Cn1cnc2cccnc21 [Example 113, 2-Imidazo[4,5-b]pyridin-3-yl-1-[(R)-2-methyl-4-(2-thiazol-2-yl-1,2,3,4-tetrahydro-isoquinolin-8-yl)-piperazin-1-yl]-ethanone] |
| 9.53 | Cc1csc(N2CCc3cccc(N4CCN(C(=O)Cn5cnc6cccnc65)[C@H](C)C4)c3C2)n1 [Example 114, 2-Imidazo[4,5-b]pyridin-3-yl-1-{(R)-2-methyl-4-[2-(4-methyl-thiazol-2-yl)-1,2,3,4-tetrahydro-isoquinolin-8-yl]-piperazin-1-yl}-ethanone] |
| 15.1 | Cc1nc(N2CCc3cccc(N4CCN(C(=O)Cn5cnc6cccnc65)[C@H](C)C4)c3C2)sc1C [Example 116, 1-{(R)-4-[2-(4,5-Dimethyl-thiazol-2-yl)-1,2,3,4-tetrahydro-isoquinolin-8-yl]-2-methyl-piperazin-1-yl}-2-imidazo[4,5-b]pyridin-3-yl-ethanone] |
| 3.7 | C[C@@H]1CN(c2cccc3c2CN(c2nc(C#N)cs2)CC3)CCN1C(=O)Cn1cnc2cccnc21 [Example 117, 2-{8-[(R)-4-(2-Imidazo[4,5-b]pyridin-3-yl-acetyl)-3-methyl-piperazin-1-yl]-3,4-dihydro-1H-isoquinolin-2-yl}-thiazole-4-carbonitrile] |
| 10.9 | COc1ccc(N2CCc3cccc(N4CCN(C(=O)Cn5cnc6cccnc65)[C@H](C)C4)c3C2)nn1 [Example 119, 2-Imidazo[4,5-b]pyridin-3-yl-1-{(R)-4-[2-(6-methoxy-pyridazin-3-yl)-1,2,3,4-tetrahydro-isoquinolin-8-yl]-2-methyl-piperazin-1-yl}-ethanone] |
| 2.03 | COc1cncc(N2CCc3cccc(N4CCN(C(=O)Cn5cnc6cccnc65)[C@H](C)C4)c3C2)n1 [Example 120, 2-Imidazo[4,5-b]pyridin-3-yl-1-{(R)-4-[2-(6-methoxy-pyrazin-2-yl)-1,2,3,4-tetrahydro-isoquinolin-8-yl]-2-methyl-piperazin-1-yl}-ethanone] |
| 3.39 | COc1nc(OC)nc(N2CCc3cccc(N4CCN(C(=O)Cn5cnc6cccnc65)[C@H](C)C4)c3C2)n1 [Example 121, 1-{(R)-4-[2-(4,6-Dimethoxy-[1,3,5]triazin-2-yl)-1,2,3,4-tetrahydro-isoquinolin-8-yl]-2-methyl-piperazin-1-yl}-2-imidazo[4,5-b]pyridin-3-yl-ethanone] |
| 27.9 | COc1nccc(N2CCc3cccc(N4CCN(C(=O)Cn5cnc6cccnc65)[C@H](C)C4)c3C2)n1 [Example 122, 2-Imidazo[4,5-b]pyridin-3-yl-1-{(R)-4-[2-(2-methoxy-pyrimidin-4-yl)-1,2,3,4-tetrahydro-isoquinolin-8-yl]-2-methyl-piperazin-1-yl}-ethanone] |
| 34.4 | C[C@@H]1CN(c2cccc3c2CN(c2nc(-c4ccccc4)cs2)CC3)CCN1C(=O)Cn1cnc2cccnc21 [Example 124, 2-Imidazo[4,5-b]pyridin-3-yl-1-{(R)-2-methyl-4-[2-(4-phenyl-thiazol-2-yl)-1,2,3,4-tetrahydro-isoquinolin-8-yl]-piperazin-1-yl}-ethanone] |
